We go through ten molecules from ChEMBL document CHEMBL1201862, “PubChem BioAssay data set” (2004).

Holding throughout (assay): inhibition of tumour cell growth, NCI panel, 48 h
The test system of experiment [1] is A498.
For experiment [2], the system named is ACHN.
Experiment [3] relates to BT-549.
The test system of experiment [4] is CCRF-CEM.
Experiment [5] relates to HCT-116.
Experiment [6] relates to KM12.
Experiment [7] concerns LOX IMVI.
The test system of experiment [8] is MCF7.
Experiment [9] relates to MDA-MB-231.
Experiment [10] concerns MDA-MB-435.
Experiment [11] has as its system MDA-N.
The subject of experiment [12] is MOLT-4.
Experiment [13] deals with NCI-H226.
For experiment [14], the system named is NCI-H460.
Experiment [15] relates to OVCAR-5.
Experiment [16] deals with SK-MEL-2.
In experiment [17] the test system is SN12C.
Experiment [18] has as its system SNB-19.
Experiment [19] has as its system SR.
In experiment [20] the test system is U-251.

Each structure is given as a SMILES string.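 Interpolation was linear, between the two tested concentrations surrounding the appropriate level; five concentrations were tested over 48 hours in 96-well plates. GI50: concentration for 50% inhibition of growth.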 The source made the active and inactive calls. Cut-off read from the data, not from the text of the source: active = GI50 up to about 1.1 µM and inactive = higher.

For `NC(=O)C1CCCN1Cc1ccc2c(c1)OCO2` (stereo not drawn), the GI50 in [1], in experiment [2], in [3], in experiment [4], in experiment [5] and in experiment [6] was > 100 µM (inactive) each time. Further, the GI50 in [7], in [8], in experiment [9], in experiment [10], in [11] and in experiment [12] was > 100 µM (inactive) throughout. Besides, the GI50 in experiment [13], in experiment [14], in experiment [15], in experiment [16], in experiment [17] and in experiment [18] was > 100 µM (inactive) each time. For the same molecule, the GI50 in [19] and in experiment [20] was > 100 µM (inactive) in each case.

Take `CC(=O)C(CN1CCOCC1)C(c1ccccc1)c1c(O)c2ccccc2oc1=O` (stereo not drawn): the GI50 in [1], in [2], in [3], in experiment [4], in experiment [5] and in experiment [6] was > 100 µM (inactive) in each case. Also, the GI50 in experiment [7] is > 100 µM (inactive); in experiment [8] it was > 100 µM (inactive); in experiment [9], 83.9 µM (inactive); in experiment [10] it was > 100 µM (inactive); in [11], > 100 µM (inactive); in experiment [12], > 100 µM (inactive). The GI50 in experiment [13], in [14], in experiment [15], in [16], in experiment [17] and in [18] was > 100 µM (inactive) throughout. The GI50 in [19] is 64.7 µM (inactive); in experiment [20], > 100 µM (inactive).

Turning to `CC(Cn1c2c(c3cc(O)ccc31)CCc1ccc(O)cc1-2)N(C)C` (stereo not drawn), the GI50 in [1] was 26.3 µM (inactive); in experiment [2], 15.8 µM (inactive); in [3] it was 16.3 µM (inactive); in experiment [4], 53.3 µM (inactive); in experiment [5], 19.7 µM (inactive); in experiment [6] it was 15.9 µM (inactive). Moreover, the GI50 in experiment [7] is 23.4 µM (inactive); in experiment [8], 19.9 µM (inactive); in [9], 26 µM (inactive); in experiment [10], 17.9 µM (inactive); in experiment [11] it was 18.8 µM (inactive); in [12], 35.6 µM (inactive). For the same molecule, the GI50 in [13] was 14.4 µM (inactive); in experiment [14] it was 15.1 µM (inactive); in experiment [15], 19.3 µM (inactive); in experiment [16], 16.4 µM (inactive); in experiment [17], 29.4 µM (inactive); in experiment [18], 17.8 µM (inactive). Moreover, the results for the GI50 in experiment [19] and in experiment [20] were 48.2 µM (inactive) and 28.2 µM (inactive), respectively.

With `O=C(c1ccccc1)c1cc(-c2ccccc2)c(-c2ccccc2)[nH]c(=O)c1=O`, the GI50 was 77.4 µM (inactive) in experiment [1]; 63.5 µM (inactive) in experiment [2]; 22.5 µM (inactive) in [3]; 15.2 µM (inactive) in experiment [4]; 35.2 µM (inactive) in experiment [5]; 35.8 µM (inactive) in experiment [6]. Besides, the GI50 in experiment [7] is 34.5 µM (inactive); in experiment [8], 31.5 µM (inactive); in [9] it was > 100 µM (inactive); in experiment [10], 30.5 µM (inactive); in [11], 38.5 µM (inactive); in experiment [12] it was 24.2 µM (inactive). Moreover, the GI50 is 43.4 µM (inactive) in experiment [13]; 34 µM (inactive) in experiment [14]; 54.2 µM (inactive) in experiment [15]; 24.3 µM (inactive) in experiment [16]; 35.2 µM (inactive) in [17]; 64.6 µM (inactive) in experiment [18]. Further, the GI50 is 24.1 µM (inactive) in experiment [19] and 37.8 µM (inactive) in [20].

As to `C=Cc1c(C)c2cc3nc(c4c5[nH]c(cc6nc(cc1[nH]2)C(C)=C6CC)c(C)c5C(=O)C4C(=O)OC)C(CCC(=O)OC)C3C` (stereo not drawn), the GI50 in experiment [1], in experiment [2], in experiment [3], in experiment [4], in experiment [5] and in experiment [6] was > 100 µM (inactive) throughout. Further, the GI50 in experiment [7], in experiment [8], in experiment [9], in experiment [10], in [11] and in experiment [13] was > 100 µM (inactive) throughout. Further, the GI50 in experiment [14], in experiment [15], in experiment [16], in experiment [17], in experiment [18] and in experiment [19] was > 100 µM (inactive) throughout. Also, the GI50 in experiment [20] is > 100 µM (inactive).

Consider `C/C(=N\NC(N)=S)c1sc(-n2nc(-c3ccccc3)cc2-c2ccccc2)nc1C`, for which the GI50 was > 100 µM (inactive) in experiment [1]; > 100 µM (inactive) in experiment [2]; > 100 µM (inactive) in experiment [3]; 36.5 µM (inactive) in [4]; 55.8 µM (inactive) in experiment [5]; > 100 µM (inactive) in [6]. The GI50 in experiment [7] is 71.9 µM (inactive); in experiment [8], 51.6 µM (inactive); in experiment [9], 43.3 µM (inactive); in [10] it was > 100 µM (inactive); in experiment [11], > 100 µM (inactive); in [12] it was 27.9 µM (inactive). The GI50 in [13], in experiment [14], in [15], in experiment [16], in [17] and in experiment [18] was > 100 µM (inactive) in each case. For the same molecule, the GI50 in experiment [19] was 67.3 µM (inactive); in experiment [20], > 100 µM (inactive).

Take `O=C(O)c1ccccc1/C=N\N=C1NCCN1`: the GI50 in [1] is > 100 µM (inactive); in experiment [2], > 100 µM (inactive); in experiment [3], 49.9 µM (inactive); in [4] it was > 100 µM (inactive); in [5], > 100 µM (inactive); in experiment [6], > 100 µM (inactive). In addition, the GI50 in [7], in [8], in experiment [9], in experiment [10], in experiment [11] and in [12] was > 100 µM (inactive) throughout. Also, the GI50 in [13] was 21.6 µM (inactive); in [14], > 100 µM (inactive); in experiment [15], > 100 µM (inactive); in experiment [16] it was > 100 µM (inactive); in experiment [17] it was > 100 µM (inactive); in experiment [18] it was > 100 µM (inactive). The GI50 in [19] and in experiment [20] was > 100 µM (inactive) each time.

For the molecule `COC[C@H]1C(=O)NCC(=O)N2N=CCC[C@H]2C(=O)N(O)[C@H](C)C(=O)O[C@@H](C(C)C)[C@H](NC(=O)[C@@](C)(O)[C@]2(O)CC[C@@H](CC(C)C)[C@H](C)O2)C(=O)N2NCCC[C@@H]2C(=O)N1O`, the GI50 was 0.0412 µM (active) in experiment [1]; 0.0324 µM (active) in experiment [2]; 0.0166 µM (active) in experiment [3]; 0.0216 µM (active) in experiment [4]; 0.0134 µM (active) in [5]; 0.0134 µM (active) in experiment [6]. For the same molecule, the GI50 in experiment [7] was 0.0178 µM (active); in [8] it was 0.0168 µM (active); in experiment [9], 0.0191 µM (active); in [10] it was 0.0164 µM (active); in experiment [11], 0.018 µM (active); in experiment [12], 0.0164 µM (active). The GI50 in experiment [13] was 0.0197 µM (active); in experiment [14], 0.0166 µM (active); in [15], 0.0178 µM (active); in experiment [16] it was 0.0164 µM (active); in [17] it was 0.0185 µM (active); in experiment [18] it was 0.0163 µM (active). Further, the GI50 in experiment [19] is 0.014 µM (active); in experiment [20], 0.0168 µM (active).

As for `c1csc(-c2ccc(-c3ccc(-c4cccs4)s3)s2)c1`, the GI50 in experiment [1], in [2], in experiment [3], in experiment [5], in experiment [6] and in experiment [7] was > 100 µM (inactive) each time. Further, the GI50 in [8], in [9], in [10], in experiment [11], in experiment [12] and in [13] was > 100 µM (inactive) each time. For the same molecule, the GI50 in [14], in experiment [15], in [16], in experiment [17], in experiment [18] and in experiment [19] was > 100 µM (inactive) each time. Besides, the GI50 in experiment [20] is > 100 µM (inactive).

In the case of `CC(=O)c1cc2c(s1)C(=O)c1ccccc1C2=O`, the GI50 was 29.3 µM (inactive) in experiment [1]; 1.36 µM (inactive) in experiment [2]; 1.62 µM (inactive) in [3]; 1.96 µM (inactive) in experiment [4]; 1.68 µM (inactive) in experiment [5]; 2.04 µM (inactive) in experiment [6]. Further, the GI50 is 0.346 µM (active) in experiment [7]; 2.08 µM (inactive) in experiment [8]; 3.13 µM (inactive) in experiment [9]; 0.791 µM (active) in experiment [10]; 1.63 µM (inactive) in [11]; 2.48 µM (inactive) in experiment [12]. Further, the GI50 was 2.61 µM (inactive) in experiment [13]; 1.05 µM (active) in experiment [14]; 5.25 µM (inactive) in experiment [15]; 4.31 µM (inactive) in experiment [16]; 2.59 µM (inactive) in experiment [17]; 0.424 µM (active) in experiment [18]. In addition, the GI50 in experiment [19] is 5.66 µM (inactive); in [20], 2.37 µM (inactive).
